Source: US9981908B2, “Amino acid derivatives” (priority 2013, dated 2018)
Like-named read-outs stand apart in the source and are kept apart here.

Molecular target: T1, pylRS/tRNA pair (Methanosarcina mazei, UniProt Q8PWY1, Y384F)
T1 construct: expressed in transfected cells; host or cells: HEK293 cells stably expressing pylRS
Format: cell-based
Conditions: HEK293 cells stably expressing pylRS, nnAAs at 2 mM for 2-3 days; for incorporation in the GFP reporter gene (green cells) / MFI: tRNApyl and GFPY40 reporter; for MFI: GFP fluorescence by flow cytometry, geometric mean of the fluorescent cells; for Positive GFP Assay: transfected with tRNApyl and GFPY40 reporter, visual inspection under the microscope
Description: An in vitro cell based assay was developed to assess the compatibility of the pylRS/tRNA pair and the pyrrolysine analogs of the present invention (nnAAs) by and the efficiency of nnAAs integration into a target protein. For this, HEK293 cells stably expressing pylRS (SEQ ID NO 4) were transiently transfected with plasmids for the expression of tRNApyl (SEQ ID NO 7) and a reporter construct encoding GFPY40 (containing amber codon in place of tyrosine at amino acid residue number 40 (where 1 is the initiator methionine)) (SEQ ID NOs 10 and 11) using standard transfection protocols. Transfected cells were incubated with nnAAs at 2 mM for 2-3 days GFP production was analyzed qualitatively by visual inspection under the microscope. The GFP fluorescence was quantified by flow cytometry using an Accuri flow cytometer and the geometric mean of the fluorescent cells determined.
This cell based assay was used to determine whether the different nnAAs were suitable substrates for the pylRS and allowed its translation into a target protein. Cells expressing the PylRS/tRNApyl pair and containing a vector encoding the GFPY40 reporter gene were incubated in the presence of the nnAAs. nnAAs that are readily utilized by the PylRS/tRNApyl pair support the translation of the nnAA into the amber site of GFP and allow read-through of the gene producing full length GFP (fluorescent protein). The fluorescence intensity of the cells depends on the efficiency of nnAA incorporation. Thus, nnAAs that are poorly utilized produce weakly fluorescent or non-fluorescing cells. […] Furthermore, the relative expression levels in each sample was compared to those generated by substrates known to be efficiently utilized by pylRS.

T1 sequence (Q8PWY1 whole entry Y384F): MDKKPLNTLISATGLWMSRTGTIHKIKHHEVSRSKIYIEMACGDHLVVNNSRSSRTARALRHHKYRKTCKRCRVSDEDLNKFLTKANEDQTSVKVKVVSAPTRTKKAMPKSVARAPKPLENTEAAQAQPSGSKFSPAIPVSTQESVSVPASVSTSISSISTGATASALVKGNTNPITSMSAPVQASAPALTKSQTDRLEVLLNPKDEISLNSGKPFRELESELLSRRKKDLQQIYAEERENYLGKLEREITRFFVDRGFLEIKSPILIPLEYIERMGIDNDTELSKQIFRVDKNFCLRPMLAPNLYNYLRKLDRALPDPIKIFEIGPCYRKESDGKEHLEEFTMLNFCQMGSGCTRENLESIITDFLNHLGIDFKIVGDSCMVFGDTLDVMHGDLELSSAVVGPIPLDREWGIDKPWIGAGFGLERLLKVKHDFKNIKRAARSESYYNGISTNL

Structure (SMILES) | incorporation in the GFP reporter gene (green cells) | Positive GFP Assay | other results
C=CCNC(=O)NCCCC[C@H](N)C(=O)O [Formula IA.5, (2S)-2-amino-6-{[(prop-2-en-1-yl)carbamoyl]amino}hexanoic acid] | incorporated in the GFP reporter gene and yield green cells | – | –
C#CCOC(=O)NCCCC[C@H](N)C(=O)O [Formula IA.2, (2S)-2-amino-6-{[(prop-2-yn-1-yloxy)carbonyl]amino}hexanoic acid] | – | Yes | MFI: 1,676,250; MFI (listed as 1A.2): 1676250
C=CCOC(=O)NCCSCC(N)C(=O)O (stereo in doubt) [Formula III.3, (2S)-2-amino-3-[(2-{[(prop-2-en-1-yloxy)carbonyl]amino}ethyl)sulfanyl]propanoic acid] | incorporated in the GFP reporter gene and yield green cells | Yes | –
[N-]=[N+]=NCCOC(=O)NCC(=O)NC[C@H](N)C(=O)O [Formula V.1, (2S)-2-amino-3-(2-{[(2-azidoethoxy)carbonyl]amino}acetamido)propanoic acid] | incorporated in the GFP reporter gene and yield green cells | Yes | –
C=CCOC(=O)NCC(=O)NC[C@H](N)C(=O)O [Formula V.3, (2S)-2-amino-3-(2-{[(prop-2-en-1-yloxy)carbonyl]amino}acetamido)propanoic acid] | incorporated in the GFP reporter gene and yield green cells | Yes | –
[N-]=[N+]=NCCOC(=O)NCCCC[C@H](N)C(=O)O [Formula IA.1, (2S)-2-amino-6-{[(2-azidoethoxy)carbonyl]amino}hexanoic acid] | – | Yes | MFI: 931,289; MFI (listed as 1A.1): 931289
[N-]=[N+]=NCCNC(=O)CCCSCC(N)C(=O)O (stereo in doubt) [Formula III.13, (2S)-2-amino-3-({3-[(2-azidoethyl)carbamoyl]propyl}sulfanyl)propanoic acid] | incorporated in the GFP reporter gene and yield green cells | Yes | –
C=CCNC(=O)CCCSCC(N)C(=O)O (stereo in doubt) [Formula III.12, (2S)-2-amino-3-({3-[(prop-2-en-1-yl)carbamoyl]propyl}sulfanyl)propanoic acid] | incorporated in the GFP reporter gene and yield green cells | Yes | –
[N-]=[N+]=NCCOC(=O)NCCSCC(N)C(=O)O (stereo in doubt) [Formula III.1, (2S)-2-amino-3-[(2-{[(2-azidoethoxy)carbonyl]amino}ethyl)sulfanyl]propanoic acid] | incorporated in the GFP reporter gene and yield green cells | Yes | –
CCCC(N=[N+]=[N-])C(=O)NCCCC[C@H](N)C(=O)O (stereo partly drawn) [Formula VII.1, (2S)-2-amino-6-(2-azidopentanamido)hexanoic acid] | incorporated in the GFP reporter gene and yield green cells | Yes | –
[N-]=[N+]=NCCNC(=O)NCCCC[C@H](N)C(=O)O [Formula IA.4, (2S)-2-amino-6-{[(2-azidoethyl)carbamoyl]amino}hexanoic acid] | incorporated in the GFP reporter gene and yield green cells | Yes | MFI: 254250
C=CCOC(=O)NC(CCN=[N+]=[N-])C(=O)NC[C@H](N)C(=O)O (stereo partly drawn) [Formula VIII.1, (2S)-2-amino-3-(4-azido-2-{[(prop-2-en-1-yloxy)carbonyl]amino}butanamido)propanoic acid] | – | Yes | –
C=CCOC(=O)NCCCC[C@H](N)C(=O)O [Formula IA.3, (2S)-2-amino-6-{[(prop-2-en-1-yloxy)carbonyl]amino}hexanoic acid] | – | Yes | MFI: 2,250,000; MFI (listed as 1A.3): 2250000
C#CCOC(=O)NCCSCC(N)C(=O)O (stereo in doubt) [Formula III.2, (2S)-2-amino-3-[(2-{[(prop-2-yn-1-yloxy)carbonyl]amino}ethyl)sulfanyl]propanoic acid] | incorporated in the GFP reporter gene and yield green cells | Yes | –
C#CCOC(=O)NCC(=O)NC[C@H](N)C(=O)O [Formula V.2, (2S)-2-amino-3-(2-{[(prop-2-yn-1-yloxy)carbonyl]amino}acetamido)propanoic acid] | incorporated in the GFP reporter gene and yield green cells | – | –
